Reference: patent publication US20170304355A1, “COMPOSITIONS AND METHODS OF USE THEREOF” (priority 2014, published 2017)
Read-outs that look alike come from different tables or passages of the source. Values belong to the molecule of their own block, whether it stands above or below them.

Legend:
[1] = test system: P. aeruginosa strain PA01; assay: Checkerboard assay, various PAAG's and tobramycin; format: cell-based; details: Pseudomonas aeruginosa
[2] = test system: clinical isolates of P. aeruginosa; assay: Checkerboard assay, PAAG and tobramycin; format: cell-based; details: Pseudomonas aeruginosa
Procedure: Two independent checkerboard assays screened 64 unique combinations of antimicrobial concentrations in duplicate. […] Bacteria were incubated at 37° C. for 20 hours. The MIC was determined as the lowest concentration with no visible bacterial growth observed.

[3] = test system: P. aeruginosa strain SUS116; assay: Minimal Biofilm Inhibitory Concentration (MBIC) assay; format: cell-based; details: for MBIC Tobramycin: alone
Procedure: (§1) Each isolate was taken from the −80° C. freezer stock and grown for approximately 20 hours in LB Broth at 37° C. shaking water bath. […] The antibiotics and PAAG (22.4% functionalization, 36.9 kDa, 89.74 DDA, 1.63 PDI) were prepared similar to a checkerboard assay (2× concentration to accommodate addition of culture) in MH broth, in a sterile flat-bottomed 96-well plate. For MRSA strain SA5, the PAAG concentrations tested were 0-128 ug/ml. The vancomycin concentrations tested were 0-4 ug/ml. […] The tobramycin concentrations tested were 0-4 ug/ml. Plates were incubated in a 37° C. incubator.
(§2) The fractional inhibitory concentration (FIC) was calculated as; FIC calculation: […]
(§3) and the FIC relationship was defined as; Synergy: FIC≦0.5; Additive: 0.5<FIC≦1.0; or Indifferent: FIC>1.0.

[4] = test system: MRSA; assay: Broth microdilution checkerboard assay, PAAG and oxacillin; format: cell-based, Staphylococcus aureus; details: for MIC: Staphylococcus aureus, MRSA
Excerpt: (§4) Checkerboard and time kill bactericidal studies of mupriocin, methicillin-resistant Staphylococcus aureus strains 2-4C and 2-9A were completed as part of the synergy studies to evaluate potentiation of […] by PAAG (25% functionalized, 43 kDa). Synergistic relationships between PAAG and oxacillin were examined in vitro using the broth microdilution checkerboard assay in 96-well microtiter plates. Serial two-fold dilutions of PAAG and oxacillin were placed in each well with approximately 1×10^5 CFU/ml of S. aureus. Each plate was incubated 20 hours. The MIC was determined as the lowest concentration where no visible bacterial growth was observed. […] Controls for bacterial growth and sterility were included. The FIC for each strain was calculated. The FIC is an interaction coefficient indicating whether the combined inhibitory/bacteristatic effect of drugs is synergistic (FIC of 0.5 or less), additive ([…]), or antagonistic (FIC>4). The FIC is =A+B, where: A=(MIC of X with Y)/(MIC of drug X alone) and B=(MIC of Y with X)/(MIC of drug Y alone). The time-kill assay (vCFU) was performed using the microdilution technique. Approximately 1×10^5 CFU/ml of each bacteria tested was tested against mupriocin alone and in combination. Concentrations of PAAG tested were ½-⅛×MIC. The vCFU was determined after 24 hours treatment using the microtiter technique (8).

[5] = test system: MRSA strain SA5; assay: Minimal Biofilm Inhibitory Concentration (MBIC) assay; format: cell-based, Staphylococcus aureus
Procedure: as §1, §2, §3

[6] = test system: mupirocin-resistant MRSA strains 2-4C and 2-9A; assay: Time-kill assay (vCFU), PAAG and mupirocin; format: cell-based, Staphylococcus aureus; details: 24-hours
Excerpt: as §4

- MIC ([1]; PA01, alone, assay run with PAAG^1, read-out: MIC Tobramycin): 1 µg/mL
- MIC ([1]; PA01, alone, assay run with PAAG^2, read-out: MIC Tobramycin): 0.5 µg/mL
- MIC ([1]; PA01, alone, assay run with PAAG^3, read-out: MIC Tobramycin): 0.5 µg/mL
- MIC ([1]; PA01, with PAAG^1 (27%, 32 kDa), read-out: MIC Tobramycin (with PAAG)): 0.031 µg/mL
- MIC ([1]; PA01, with PAAG^2 (31%, 54 kDa), read-out: MIC Tobramycin (with PAAG)): 0.031 µg/mL
- MIC ([1]; PA01, with PAAG^3 (25%, 40 kDa), read-out: MIC Tobramycin (with PAAG)): 0.063 µg/mL
- MIC ([2]; strain AMT-32-4, alone, read-out: MIC Tobramycin): 0.31 µg/mL
- MIC ([2]; strain AMT-32-4, read-out: MIC Tobramycin (with PAAG)): 0.13 µg/mL
- MIC ([2]; strain MR29, alone, read-out: MIC Tobramycin): 0.31 µg/mL
- MIC ([2]; strain MR29, read-out: MIC Tobramycin (with PAAG)): 0.25 µg/mL
- MIC ([2]; strain MR 51, alone, read-out: MIC Tobramycin): 0.31 µg/mL
- MIC ([2]; strain MR 51, read-out: MIC Tobramycin (with PAAG)): 0.13 µg/mL
- MIC ([2]; strain PA01, alone, read-out: MIC Tobramycin): 0.31 µg/mL
- MIC ([2]; strain PA01, read-out: MIC Tobramycin (with PAAG)): 0.13 µg/mL
- MIC ([2]; strain SUS 116, alone, read-out: MIC Tobramycin): 1.25 µg/mL
- MIC ([2]; strain SUS 116, read-out: MIC Tobramycin (with PAAG)): 0.13 µg/mL
SMILES: NC[C@H]1O[C@H](O[C@H]2[C@H](O)[C@@H](O[C@H]3O[C@H](CO)[C@@H](O)[C@H](N)[C@H]3O)[C@H](N)C[C@@H]2N)[C@H](N)C[C@@H]1O [Tobramycin]
- MBIC Tobramycin ([3]; PAAG and tobramycin table (TABLE 2)): 6.25 µg/mL
- MBIC Tobramycin ([3]; column of the PAAG and aztreonam table (TABLE 1)): 2 µg/mL
- MBIC Tobramycin (with PAAG) ([3]; in combination with PAAG): 2 µg/mL

SMILES: Cc1onc(-c2ccccc2)c1C(=O)N[C@@H]1C(=O)N2[C@@H]1SC(C)(C)[C@@H]2C(=O)O [OXA, oxacillin]
- MIC ([4]; all strains, alone, read-out: MIC oxacillin): ≥ 4 µg/mL
- MIC ([4]; strain 2-1A, alone, read-out: MIC OXA): 8 µg/mL
- MIC ([4]; strain 2-1A, read-out: MIC OXA with PAAG): 1 µg/mL
- MIC ([4]; strain 2-4C, alone, read-out: MIC OXA): 16 µg/mL
- MIC ([4]; strain 2-4C, read-out: MIC OXA with PAAG): 2 µg/mL
- MIC ([4]; strain 2-9A, alone, read-out: MIC OXA): 8 µg/mL
- MIC ([4]; strain 2-9A, read-out: MIC OXA with PAAG): 0.5 µg/mL
- MIC ([4]; strain MW-2, alone, read-out: MIC OXA): 4 µg/mL
- MIC ([4]; strain MW-2, read-out: MIC OXA with PAAG): 1 µg/mL
- MIC ([4]; strain SA05, alone, read-out: MIC OXA): 4 µg/mL
- MIC ([4]; strain SA05, read-out: MIC OXA with PAAG): 1 µg/mL
- MIC of oxacillin after addition of PAAG (susceptible range) ([4]; all strains, PAAG at 2, 8 or 16 μg/ml): ≥ 2 µg/mL

SMILES: C[C@H]1[C@H](NC(=O)/C(=N\OC(C)(C)C(=O)O)c2csc(N)n2)C(=O)N1S(=O)(=O)O [Aztreonam]
- MBIC Aztreonam (with PAAG) ([3]; in combination with PAAG): 0.06 µg/mL

SMILES: CN[C@H](CC(C)C)C(=O)N[C@H]1C(=O)N[C@@H](CC(N)=O)C(=O)N[C@H]2C(=O)N[C@H]3C(=O)N[C@H](C(=O)N[C@H](C(=O)O)c4cc(O)cc(O)c4-c4cc3ccc4O)[C@H](O)c3ccc(c(Cl)c3)Oc3cc2cc(c3O[C@@H]2O[C@H](CO)[C@@H](O)[C@H](O)[C@H]2O[C@H]2C[C@](C)(N)[C@H](O)[C@H](C)O2)Oc2ccc(cc2Cl)[C@H]1O [Vancomycin]
- MBIC Vancomycin ([5]; alone): 2 µg/mL
- MBIC Vancomycin (with PAAG) ([5]; in combination with PAAG): 1 µg/mL

SMILES: C/C(=C\C(=O)OCCCCCCCCC(=O)O)C[C@@H]1OC[C@H](C[C@@H]2O[C@H]2[C@@H](C)[C@H](C)O)[C@@H](O)[C@H]1O [Mup, mupirocin]
- Log10 reduction (CFU/ml) ([6]; strain 2-4C, Mup 8 μg/ml alone): 0 Log10 CFU/ml
- Log10 reduction (CFU/ml) ([6]; strain 2-9A, Mup 4 μg/ml alone): 0 Log10 CFU/ml
